Test results as given in PubChem BioAssay AID179 (DTP/NCI, 2004).
The source made the active and inactive calls.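 Rule for the calls: active = compounds giving half or more protection of infected cells from virus-caused growth loss, again on retest; inactive = the rest.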

Tested on: CEM cells HIV-1 protection, formazan growth assay
Test: NCI AIDS Antiviral Assay
Conditions: for IC50: measured here: growth of uninfected CEM cells
In short: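 Human CEM cells, uninfected and HIV-1-infected, exposed to five drug concentrations; growth measured by soluble formazan assay and scored as percent protection from infection, with protecting compounds retested.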

Row | SMILES | EC50 | IC50 | outcome
1 | O=C(O)C1SCCS1 | > 200 µM | > 200 µM | –
2 | COC(=O)C(Cn1cnc2c(N)ncnc21)P(=O)(OC)OC (stereo unspecified) | > 759 µM | 39.8 µM | –
3 | O=C1CCCN1CCCN=c1cc2n(-c3ccc(Cl)cc3)c3ccccc3nc-2cc1Nc1ccc(Cl)cc1 | – | – | inactive
4 | CCc1occc(=O)c1O | > 1780 µM | 339 µM | –
5 | S=C(NN1CCOCC1)SSC(=S)NN1CCOCC1 | > 20 µM | 0.933 µM | –
6 | O=C1CC(c2ccccc2)=NO1 | > 200 µM | > 200 µM | –
7 | C=CC[P+](CC=C)(c1ccccc1)c1ccccc1 | > 200 µM | 1.91 µM | –
8 | CC(C)[C@H]1CO[C@@H]2O[C@H](C)CC(=O)N21 | > 1260 µM | > 1260 µM | –
9 | Cc1ccc(N2C(=O)C3C=CC(n4[nH]c(=O)n(Cc5ccccc5)c4=O)CC3C2=O)cc1 (stereo unspecified) | > 417 µM | > 417 µM | –
10 | COC(=O)/N=[N+](\[O-])C(c1ccc(OC)cc1)C1CCCCC1 (stereo unspecified) | > 200 µM | 5.62 µM | –
11 | Cc1nc2c(N)n[nH]c(=O)n2n1 | > 200 µM | > 200 µM | –
12 | O=[N+]([O-])c1ccc2nc3ccc([N+](=O)[O-])cn3c2c1 | > 200 µM | > 200 µM | –
13 | c1ccc(COc2ccc3[nH]c4c(ncc5[nH]c6ccccc6c54)c3c2)cc1 | – | – | inactive
14 | Cc1c2c(n(CC(c3ccccc3)c3ccccc3)c1C)NN=C(C#N)S2(=O)=O | > 200 µM | > 100 µM | –
15 | CCC1Sc2cc(OC)cc(NC=O)c2NC1=O (stereo unspecified) | 174 µM | > 200 µM | –
16 | Cc1ccc(S(=O)(=O)c2c(C)cc(C)cc2C)cc1 | > 200 µM | 12.6 µM | –
17 | COc1ccc2c3c([nH]c(=O)c2c1C(=O)O)-c1ccccc1CC3 | > 16.2 µM | > 16.2 µM | –
18 | Cn1c(=O)c(C2c3ccccc3Oc3c2c(=O)n(C)c2ccccc32)c(O)c2ccccc21 (stereo unspecified) | > 16.6 µM | > 16.6 µM | –
19 | CCCCCCCCCCCC(=O)OCCNC(=O)C[n+]1ccccc1 | > 200 µM | > 200 µM | –
20 | Clc1c2ccccc2nc2c1[nH]c1ccccc12 | > 200 µM | 11.2 µM | –
21 | Nc1ncnc2c1ncn2C(Cl)=C(Cl)Cl | > 200 µM | 115 µM | –

Row | SMILES | EC50 | IC50 | outcome
22 | Cc1nn(C(=O)Cc2ccccc2)c2c1C(c1ccc([N+](=O)[O-])cc1)SC(N)=N2 (stereo unspecified) | 77.6 µM | 117 µM | –
23 | COC1OC(C)C(NC(=O)OCC(Cl)(Cl)Cl)C2OC(C)(C)OC12 (stereo unspecified) | > 331 µM | > 331 µM | –
24 | C=CCC(N)Cc1ccccc1 (stereo unspecified) | > 200 µM | > 200 µM | –
25 | CCc1n[nH]c(=O)n1O | > 200 µM | > 200 µM | –
26 | O=C(NCCCNCCN1C(=O)c2cccc3cc([N+](=O)[O-])cc(c23)C1=O)c1cc(-c2ccccc2)nc2ccccc12 | > 200 µM | 1.05 µM | –
27 | CCOC(=O)c1[nH]n(-c2ccccc2)c(=O)c1/C=N/C(=S)NNC(C)=O | – | 138 µM | inactive
28 | CSc1c(C#N)c(=O)n(N)c2c1c(C)nn2-c1ccccc1 | > 200 µM | 26.9 µM | –
29 | O=C(c1ccco1)N(C(=S)N1CCN(c2ccccc2)CC1)C1CCCCC1 | > 18.2 µM | 12.6 µM | –
30 | CC12SC3(C)SC(C)(S1)SC(C)(S2)S3 | > 44.7 µM | 33.1 µM | –
31 | CC(=O)OC1COC(Nn2c(=O)[nH]c3ccccc3c2=O)C(OC(C)=O)C1OC(C)=O (stereo unspecified) | > 200 µM | > 200 µM | –
32 | COc1ccc(O)c(/C(C)=N/NC(=S)N(C)C)c1 | > 200 µM | 10.7 µM | –
33 | OCCCN(CCO)CCN(CCCO)CCCO | > 200 µM | > 200 µM | –
34 | Cc1cnc2nc(N)nc(N)c2n1 | > 200 µM | > 200 µM | –
35 | C1COCCOP2(N3CC3)=NP(N3CC3)(=NP(N3CC3)(N3CC3)=N2)OCCOCCO1 (stereo unspecified) | > 200 µM | 21.4 µM | –
36 | c1ccc(N2C3Sc4ncccc4C2Sc2ncccc23)cc1 | > 66.1 µM | > 66.1 µM | –
37 | COc1cc(C(C)(C)C)c(OC(=O)/C=C/C(=O)O/C=C/[N+](=O)[O-])c(C(C)(C)C)c1 | > 200 µM | 31.6 µM | –
38 | COC(=O)c1cc2/c(=N/O)c3ccccc3sc2o1 | > 200 µM | > 200 µM | –
39 | O=C(OCCN=C1c2ccccc2CCc2ccccc21)c1ccccc1 | > 200 µM | > 200 µM | –
40 | CC12CP(=O)(c3ccccc3)CC1C2(Cl)Cl (stereo unspecified) | – | – | inactive
41 | C=C1CC2[C@H](C)C(=O)CCC2(C)C2=C1C1CCC(C(C)CCC(=C)C(C)C(=O)O)C1(C)CC2=O (stereo partly specified) | > 200 µM | 66.1 µM | –
42 | N#C/C(=C\NC(=S)Nc1ccc(S(N)(=O)=O)cc1)C(=O)c1ccc2ccccc2c1 | > 200 µM | 155 µM | –
